{
  "source": "paper PMC5721475",
  "about": "“Characterization of sulfhydryl oxidase from Aspergillus tubingensis” (BMC Biochemistry, 2017)",
  "molecular_target": "T1, AtSOX (secreted sulfhydryl oxidase from Aspergillus tubingensis) (Aspergillus tubingensis, UniProt Z9JMF6K8Z8)",
  "T1 construct": "native secreted enzyme purified from culture medium; signal peptide removed; predicted N-terminus SSIPQ",
  "T1 sequence (Z9JMF6K8Z8 20-393)": "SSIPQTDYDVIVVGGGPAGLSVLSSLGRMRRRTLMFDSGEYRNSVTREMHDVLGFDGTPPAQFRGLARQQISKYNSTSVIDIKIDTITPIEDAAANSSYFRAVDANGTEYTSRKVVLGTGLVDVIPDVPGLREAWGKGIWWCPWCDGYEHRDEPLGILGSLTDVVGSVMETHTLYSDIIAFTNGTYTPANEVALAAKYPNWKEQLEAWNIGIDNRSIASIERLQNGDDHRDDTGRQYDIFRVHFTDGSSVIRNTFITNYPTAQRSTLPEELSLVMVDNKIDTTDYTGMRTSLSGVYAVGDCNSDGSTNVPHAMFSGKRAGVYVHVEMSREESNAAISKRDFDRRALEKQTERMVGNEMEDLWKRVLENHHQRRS",
  "assay": "UV-vis and fluorescence spectra; release of flavin by thermal denaturation",
  "type": "binding",
  "conditions": "non-covalently bound, copurified; 20 mM Tris-HCl pH 7.5, 20 °C",
  "data": [
    {"compound": "Cc1cc2nc3c(=O)[nH]c(=O)nc-3n(C[C@H](O)[C@H](O)[C@H](O)COP(=O)(O)OP(=O)(O)OC[C@H]3O[C@@H](n4cnc5c(N)ncnc54)[C@H](O)[C@@H]3O)c2cc1C", "note": "[FAD, flavin adenine dinucleotide]", "values": [
      {"measurement": "UV-vis and fluorescence spectra; release of flavin by thermal denaturation", "value": "The enzyme had a non-covalently bound FAD as a cofactor"}
    ]}
  ]
}
